Experimental data published in patent US20110301146A1 (ONCOTHERAPY SCIENCE, INC., priority 2008, published 2011).

The compounds below were run against T1, GSK-3beta (Homo sapiens, UniProt P49841) (assay: Z'-LYTE kinase assay (FRET, SER/THR 9 peptide)). Conditions: 0.04 ng/micro-l GSK-3beta (Invitrogen), 2 micro-M SER/THR 9 peptide, 15 micro-M ATP, 1 hour at room temperature, 1% DMSO.
T1 construct: purchased Invitrogen
Type: biochemical
Description: The Z′-LYTE kinase assay kit employs a fluorescence resonance energy transfer (FRET) between two fluorophores, coumarin and fluorescein, attached to each end of a substrate peptide.
For 0% phosphorylation control, ATP was omitted from the reaction mixture. For 100% phosphorylation control, SER/THR 9 phosphopeptide was used in place of the SER/THR 9 peptide. Following 1 hour incubation at room temperature, the reaction was stopped by the addition of half assay volume of development solution and further incubated for 1 hour at room temperature. […] The extent of phosphorylation was determined according to the 0% and 100% phosphorylation control samples using the following equation: […]
IC50 values were calculated by nonlinear four parameter fit using SigmaPlot, version 10.0 (Systat Software, Inc.).

T1 sequence (P49841 whole entry): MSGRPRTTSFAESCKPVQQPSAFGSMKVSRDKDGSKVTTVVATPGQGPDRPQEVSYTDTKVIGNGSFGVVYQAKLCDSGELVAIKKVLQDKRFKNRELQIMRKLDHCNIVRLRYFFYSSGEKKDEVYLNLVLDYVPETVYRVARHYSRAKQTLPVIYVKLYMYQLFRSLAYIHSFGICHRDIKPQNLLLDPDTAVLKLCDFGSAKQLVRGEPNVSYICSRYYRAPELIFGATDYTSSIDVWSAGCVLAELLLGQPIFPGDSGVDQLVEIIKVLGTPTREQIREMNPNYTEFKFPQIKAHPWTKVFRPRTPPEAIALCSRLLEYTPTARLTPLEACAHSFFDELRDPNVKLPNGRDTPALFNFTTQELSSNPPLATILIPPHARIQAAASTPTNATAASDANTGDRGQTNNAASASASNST

Row | IC50 [nM] | SMILES
1 | 140 | O=C(NCC1CNC1)c1ccc(O)c2[nH]c(C3CC3)nc12 [Example 13, N-(azetidin-3-ylmethyl)-2-cyclopropyl-4-hydroxy-1H-benzo[d]imidazole-7-carboxamide]
2 | 1500 | O=C(NCC1CCCCN1)c1ccc(O)c2[nH]c(-c3ccccc3)nc12 (stereo not drawn) [Example 18, 4-Hydroxy-2-phenyl-N-(piperidin-2-ylmethyl)-1H-benzo[d]imidazole-7-carboxamide]
3 | 26 | O=C(N[C@H]1CC[C@H](O)CC1)c1ccc(O)c2[nH]c(-c3cccs3)nc12 [Example 20, 7-Hydroxy-N-(4-hydroxycyclohexyl)-2-(thiophen-2-yl)-1H-benzo[d]imidazole-4-carboxamide]
4 | 240 | O=C(NCC1CCCCN1)c1ccc(O)c2[nH]c(-c3cccs3)nc12 (stereo not drawn) [Example 45, 7-Hydroxy-N-(piperidin-2-ylmethyl)-2-(thiophen-2-yl)-1H-benzo[d]imidazole-4-carboxamide]
5 | 120 | O=C(N[C@H]1CCCNC1)c1ccc(O)c2[nH]c(-c3ccccc3)nc12 [Example 17, (S)-4-Hydroxy-2-phenyl-N-(piperidin-3-yl)-1H-benzo[d]imidazole-7-carboxamide]
6 | 230 | O=C(NC1CCCNC1)c1ccc(O)c2[nH]c(C3CC4CCC3C4)nc12 (stereo not drawn) [Example 49, 2-(Bicyclo[2.2.1]heptan-2-yl)-7-hydroxy-N-(piperidin-3-yl)-1H-benzo[d]imidazole-4-carboxamide]
7 | 100 | O=C(NCC1CCCCN1)c1ccc(O)c2[nH]c(C3CC3)nc12 (stereo not drawn) [Example 7, 2-Cyclopropyl-4-hydroxy-N-(piperidin-2-ylmethyl)-1H-benzo[d]imidazole-7-carboxamide]
8 | 1300 | O=C(NCC1CCCCN1)c1ccc(O)c2[nH]c(C3CCCC3)nc12 (stereo not drawn) [Example 14, 2-cyclopentyl-4-hydroxy-N-(piperidin-2-ylmethyl)-1H-benzo[d]imidazole-7-carboxamide]
9 | 12 | O=C(NC1CCC(C(=O)O)CC1)c1ccc(O)c2[nH]c(-c3cccs3)nc12 (stereo not drawn) [Example 72, 4-[7-hydroxy-2-(thiophen-2-yl)-1H-benzo[d]imidazole-4-carboxamido]cyclohexanecarboxylic Acid]
10 | 1900 | NC12CC3CC(C1)CC(NC(=O)c1ccc(O)c4[nH]c(C5CC6CCC5C6)nc14)(C3)C2 (stereo not drawn) [Example 53]
11 | 1300 | CN1CCCC(NC(=O)c2ccc(O)c3[nH]c(C4CC4)nc23)C1 (stereo not drawn) [Example 8, 2-cyclopropyl-4-hydroxy-N-(1-methylpiperidin-3-yl)-1H-benzo[d]imidazole-7-carboxamide]
12 | 22000 | O=C(c1ccc(O)c2[nH]c(-c3cccs3)nc12)N1CCNCC1 [Example 21, (7-hydroxy-2-[thiophen-2-yl]-1H-benzo[d]imidazol-4-yl)(piperazin-1-yl)methanone]
13 | 330 | NC12CC3CC(C1)CC(NC(=O)c1ccc(O)c4[nH]c(-c5cccs5)nc14)(C3)C2 [Example 54, 2-(Thiophene-2-yl)-7-hydroxy-N-(adamantate-3-ylamino)-1H-benzo[d]imidazole-4-carboxamide]
14 | 130 | O=C(NCC1CCCNC1)c1ccc(O)c2[nH]c(C3CCCC3)nc12 (stereo not drawn) [Example 15, 2-Cyclopentyl-4-hydroxy-N-(piperidin-3-ylmethyl)-1H-benzo[d]imidazole-7-carboxamide]
15 | 43 | O=C(NCC1CNC1)c1ccc(O)c2[nH]c(-c3cccs3)nc12 [Example 43, N-(Azetidin-3-ylmethyl)-7-hydroxy-2-(thiophen-2-yl)-1H-benzo[d]imidazole-4-carboxamide]
16 | 16 | O=C(N[C@H]1CCCNC1)c1ccc(O)c2[nH]c(-c3ccc(Br)s3)nc12 [Example 51, (S)-2-(5-bromothiophen-2-yl)-7-hydroxy-N-(piperidin-3-yl)-1H-benzo[d]imidazole-4-carboxamide]
17 | 120 | O=C(N[C@H]1CCCNC1)c1ccc(O)c2[nH]c(C3CCCC3)nc12 [Example 16, (S)-2-Cyclopentyl-4-hydroxy-N-(piperidin-3-yl)-1H-benzo[d]imidazole-7-carboxamide]
18 | 51 | N[C@H]1CC[C@H](NC(=O)c2ccc(O)c3[nH]c(-c4cccs4)nc23)CC1 [Example 47, N-(4-Aminocyclohexyl)-7-hydroxy-2-(thiophen-2-yl)-1H-benzo[d]imidazole-4-carboxamide]
19 | 18 | O=C(NC1CCNCC1)c1ccc(O)c2[nH]c(-c3cccs3)nc12 [Example 40, 7-Hydroxy-N-(piperidin-4-yl)-2-(thiophen-2-yl)-1H-benzo[d]imidazole-4-carboxamide]
20 | 100 | O=C(NCC1CCNCC1)c1ccc(O)c2[nH]c(-c3cccs3)nc12 [Example 42, 7-Hydroxy-N-(piperidin-4-ylmethyl)-2-(thiophen-2-yl)-1H-benzo[d]imidazole-4-carboxamide]
21 | 210 | O=C(NCCN1CCNCC1)c1ccc(O)c2[nH]c(-c3cccs3)nc12 [Example 36, 7-Hydroxy-N-[2-(piperazin-1-yl)ethyl]-2-(thiophen-2-yl)-1H-benzo[d]imidazole-4-carboxamide]
22 | 240 | N[C@H]1CC[C@@H](CNC(=O)c2ccc(O)c3[nH]c(C4CC5CCC4C5)nc23)CC1 (stereo partly drawn) [Example 56, N-{[(cis)-4-Aminocyclohexyl]methyl}-2-(bicyclo[2.2.1]heptan-2-yl)-7-hydroxy-1H-benzo[d]imidazole-4-carboxamide]
23 | 8.6 | O=C(NCC1CCCNC1)c1ccc(O)c2[nH]c(-c3cccs3)nc12 (stereo not drawn) [Example 39, 7-Hydroxy-N-(piperidin-3-ylmethyl)-2-(thiophen-2-yl)-1H-benzo[d]imidazole-4-carboxamide]
24 | 160 | O=C(NC[C@H]1CCCNC1)c1ccc(O)c2[nH]c(Cc3cccs3)nc12 [Example 60, (S)-7-hydroxy-N-(piperidin-3-ylmethyl)-2-(thiophen-2-ylmethyl)-1H-benzo[d]imidazole-4-carboxamide]
25 | 150 | O=C(N[C@H]1CCCNC1)c1ccc(O)c2[nH]c(C3CC4CCC3C4)nc12 (stereo partly drawn) [Example 52, 2-(Bicyclo[2.2.1]heptan-2-yl)-7-hydroxy-N-((S)-piperidin-3-yl)-1H-benzo[d]imidazole-4-carboxamide]
26 | 100 | O=C(N[C@H]1CCCNC1)c1ccc(O)c2[nH]c(C3CC3)nc12 [Example 9, (S)-2-cyclopropyl-4-hydroxy-N-(piperidin-3-yl)-1H-benzo[d]imidazole-7-carboxamide]
27 | 190 | O=C(NC1CCCNC1)c1ccc(O)c2[nH]c(C3CC3)nc12 (stereo not drawn) [Example 11, 2-cyclopropyl-4-hydroxy-N-(piperidin-3-yl)-1H-benzo[d]imidazole-7-carboxamide]
28 | 130 | O=C(NCC1CCCNC1)c1ccc(O)c2[nH]c(-c3ccccc3)nc12 (stereo not drawn) [Example 19, 4-hydroxy-2-phenyl-N-(piperidin-3-ylmethyl)-1H-benzo[d]imidazole-7-carboxamide]
29 | 3400 | CC(C)(C)OC(=O)N1CCC[C@H](NC(=O)c2ccc(O)c3[nH]c(-c4ccc(Br)s4)nc23)C1 [Example 50, (S)-tert-Butyl 3-(2-(5-bromothiophen-2-yl)-7-hydroxy-1H-benzo[d]imidazole-4-carboxamido)piperidine-1-carboxylate]
30 | 25 | O=C(NCC1CCNC1)c1ccc(O)c2[nH]c(-c3cccs3)nc12 (stereo not drawn) [Example 46, 7-Hydroxy-N-(pyrrolidin-3-ylmethyl)-2-(thiophen-2-yl)-1H-benzo[d]imidazole-4-carboxamide]
